# In US7772430B2, “Derivatives of arylsulfonamido-substituted hydroxamic acid as matrix metalloproteinases inhibitors” (Protera S.R.L., priority 2004, dated 2010):
# Tests used:
# Solubility in water = assay type: physicochemical; settings: stated in words only
# [1] = biological target: T1, Catalytic domain of MMP-12 (Homo sapiens, UniProt P39900); test: In vitro inhibition test, fluorogenic peptide substrate (Knight et al.); assay type: biochemical; settings: 298 K, pH 7, 1% DMSO; stated in words only
# T1 construct: Catalytic domain of MMP-12 was cloned, expressed and purified; made in house
# T1 sequence (P39900 106-263 limits assumed): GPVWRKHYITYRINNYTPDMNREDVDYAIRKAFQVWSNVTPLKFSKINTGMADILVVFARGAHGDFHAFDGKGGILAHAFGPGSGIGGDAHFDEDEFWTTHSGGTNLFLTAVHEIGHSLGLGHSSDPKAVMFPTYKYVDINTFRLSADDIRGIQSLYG
# Description: The compounds of the invention, prepared as above described, were tested in vitro according to the method reported by Knight et al. in FEBS Lett 1992, 296 (3):263.
# Catalytic domain of MMP-12 was cloned, expressed and purified according to the procedure reported in Banci et al. Journal of Molecular Catalysis A: Chemical, 2003, Vol. 204-205, pp. 401-408). Preparation of catalytic domain of MMP-1 was performed as follows: proMMP-1 cDNA was cloned into the pET21 (Novagen) expression vector. The recombinant vector was transformed into Escherichia Coli BL21 cells. The bacteria were grown in 2 XYt media and incubated at 37° C. When the cells reached the exponential growth phase, the expression of the protein was induced by adding 0.5 mM of IPTG and the incubation was continued further for four hours. […]
# The protein was maintained in presence of inhibitor for 5 min before the substrate was added. Subsequently, after addition of peptidic substrate, the increase of fluorescence intensity was measured vs. time (excitation 328 nm, emission 393 nm) using a Varian/Eclipse fluorimeter.
# Matrix metalloproteinases cleave peptidic bond glycine-leucine separating coumarinic group from 2,4-dinitrophenol and so causing a high increase of fluorescence intensity under the conditions indicated above. […]
smiles,measurement,setting,value
"COc1ccc(S(=O)(=O)NC(CO)C(=O)NO)cc1 (centres unmarked) [Example 7, 3,N-dihydroxy-2-[(4-methoxy-benzenesulfonyl)amino]-propionamide]",solubility in water,Solubility in water,good solubility
same,ability to inhibit MMP-12 (from IC50 data),[1],do not have the inhibition activity and selectivity of present compounds of formula (I)
